Reference: PMC10938434, “Design, Synthesis, and Biological Effect Studies of Novel Benzofuran–Thiazolylhydrazone Derivatives as Monoamine Oxidase Inhibitors” (ACS Omega, 2024)
Several values for one entry are separate records, joined by “and”; a condition that tells them apart may be missing. Equal entries are not always repeated.

Key:
[1] = biological target: T1, MAO-A enzyme (Homo sapiens, UniProt P21397); assay: MAO-A enzyme inhibition, fluorometric method; format: biochemical; conditions: for IC50: 10^–3–10^–9 M concentrations; for selectivity: MAO isoform preferentially inhibited; for SI* selectivity index: SI = IC50MAO-B/IC50 MAO-A; for inhibition at 1000 µM: read-out: MAO-A % inhibition 10^–3 M; for inhibition at 100 µM: read-out: MAO-A % inhibition 10^–4 M
T1 sequence (P21397 1-527): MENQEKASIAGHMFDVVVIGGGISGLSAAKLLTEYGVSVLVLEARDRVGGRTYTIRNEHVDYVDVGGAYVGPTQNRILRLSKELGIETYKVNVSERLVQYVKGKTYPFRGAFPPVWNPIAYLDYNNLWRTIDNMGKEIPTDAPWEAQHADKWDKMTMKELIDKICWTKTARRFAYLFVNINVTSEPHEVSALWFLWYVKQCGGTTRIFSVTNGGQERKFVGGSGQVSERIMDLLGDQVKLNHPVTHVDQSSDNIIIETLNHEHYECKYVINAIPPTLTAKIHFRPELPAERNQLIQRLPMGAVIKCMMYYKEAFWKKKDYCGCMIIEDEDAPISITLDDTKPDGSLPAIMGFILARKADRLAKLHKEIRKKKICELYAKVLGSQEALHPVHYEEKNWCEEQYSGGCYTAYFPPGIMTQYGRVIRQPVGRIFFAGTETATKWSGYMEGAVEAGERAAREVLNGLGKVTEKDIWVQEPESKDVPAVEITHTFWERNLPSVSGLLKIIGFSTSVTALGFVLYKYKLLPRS
Source text: (§1) Inhibition profiles of the synthesized compounds on MAO enzymes were investigated by the fluorometric method.
(§2) In every step of the method, distilled water obtained from a Millipor, a Milli-Q Synthesis A10 purification device, was used. Care was taken in preparing all of the solutions used fresh and to consume them within 1 week after preparation. A BioTek-Precision Power robotic pipetting system was used in the processes of separating the solutions prepared in the enzyme inhibition study, applying the test compounds to 96-well plates, and adding the enzyme–substrate solutions.

[2] = biological target: T2, MAO-B enzyme (Homo sapiens, UniProt P27338); assay: MAO-B enzyme inhibition, fluorometric method; format: biochemical; conditions: for inhibition at 1000 µM: 10^–3 M; for inhibition at 100 µM: read-out: MAO-B % inhibition 10^–4 M, 10^–4 M
T2 sequence (P27338 1-520): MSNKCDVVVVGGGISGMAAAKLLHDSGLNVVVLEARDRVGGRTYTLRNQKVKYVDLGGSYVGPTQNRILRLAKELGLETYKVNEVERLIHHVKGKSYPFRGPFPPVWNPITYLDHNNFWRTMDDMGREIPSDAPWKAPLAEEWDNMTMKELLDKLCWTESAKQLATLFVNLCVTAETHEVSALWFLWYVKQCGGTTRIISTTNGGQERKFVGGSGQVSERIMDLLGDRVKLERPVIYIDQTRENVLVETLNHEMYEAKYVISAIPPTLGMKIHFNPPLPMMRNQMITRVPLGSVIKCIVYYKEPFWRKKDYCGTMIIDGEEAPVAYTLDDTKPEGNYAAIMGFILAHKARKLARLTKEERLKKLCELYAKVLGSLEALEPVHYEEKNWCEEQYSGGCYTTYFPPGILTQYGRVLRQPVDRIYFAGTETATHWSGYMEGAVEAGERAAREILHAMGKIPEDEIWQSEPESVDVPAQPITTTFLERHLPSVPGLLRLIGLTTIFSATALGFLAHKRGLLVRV
Source text: as §1
as §2, with “solutions. The creation, monitoring, and spectrophotometric measurements of the enzyme protocol were performed on a BioTek-Synergy H1 microplate reader.[41],[42]” for “solutions.”

[3] = In vitro BBB permeability assay (PAMPA); format: in vitro ADME
[4] = Cytotoxicity test (MTT); format: cell-based, mouse; conditions: mouse, NIH3T3 mouse embryo fibroblast cells, 24 h
Description: (§3) Just as important as the effectiveness of a compound is its side effect profile. For this purpose, cytotoxic effect tests of compound 2l were carried out. NIH3T3 (healthy mouse fibroblast cells) was used as the healthy cell in the experimental procedure.
(§4) 3-(4,5-Dimethylthiazol-2-yl)-2,5-diphenyl tetrazolium bromide (MTT) stock solution (5 mg mL^–1) was prepared by dissolving in phosphate buffer (PBS). The viable cell count of NIH/3T3 (mouse healthy embryo fibroblast cells) cells grown in appropriate medium and culture medium was characterized, and each cell line was seeded in 96-well plates with 3000 cells in each well, and the cells were incubated for 24 h for their adhesion. […] At the end of the incubation, the medium in each well was removed and 100 μL of DMSO was added as a solvent and the absorbance values were read in an enzyme-linked immunosorbent assay (ELISA) device (Bio Tek Cytation3 multimode microplate reader) at a wavelength of 540 nm, with eight wells in each group. […] The obtained absorbance values give the metabolic activities of the cells, and these values are associated with the number of living cells. The results are determined as % inhibition values according to the formula given, and IC50 values are calculated from these values by using the Excel program.[52]−[54]

[5] = tested on: NIH3T3 (healthy mouse fibroblast cells); assay: Cytotoxicity test (MTT); format: cell-based
Description: as §3, §4

Row | SMILES | IC50 [1] | selectivity [1] | SI* selectivity index [1] | inhibition at 1000 µM [1] | inhibition at 100 µM [1] | IC50 [2] | inhibition at 1000 µM [2] | inhibition at 100 µM [2] | BBB permeability (in words) [3] | IC50 at 24 h [4] | cytotoxic effect result [5]
1 | C(=NNc1nc(-c2ccccc2)cs1)c1cc2ccccc2o1 [2a, 2-(2-(Benzofuran-2-ylmethylene)hydrazinyl)-4-phenylthiazole] | 80 ± 10 nM | MAO-A | >9.91 | 90.4 ± 1.66% | 83.7 ± 1.09% | 800 ± 30 nM | 85.2 ± 1.01% | > 50% |  |  | 
2 | Cc1ccc(-c2csc(NN=Cc3cc4ccccc4o3)n2)cc1 [2b, 2-(2-(Benzofuran-2-ylmethylene)hydrazinyl)-4-(p-tolyl)thiazole] | 210 ± 10 nM | MAO-A | >458.72 | 87 ± 1.92% | 78.2 ± 1.44% | > 100000 nM | 64.5 ± 1.12% | 47.1 ± 0.85% |  |  | 
3 | COc1ccc(-c2csc(NN=Cc3cc4ccccc4o3)n2)cc1 [2c, 2-(2-(Benzofuran-2-ylmethylene)hydrazinyl)-4-(4-methoxyphenyl)thiazole] | 180 ± 10 nM | MAO-A | >568.18 | 85.2 ± 2.03% | 72.8 ± 1.36% | > 100000 nM | 55.8 ± 0.96% | 42.8 ± 0.89% |  |  | 
4 | N#Cc1ccc(-c2csc(NN=Cc3cc4ccccc4o3)n2)cc1 [2d, 4-(2-(2-(Benzofuran-2-ylmethylene)hydrazinyl)thiazol-4-yl)benzonitrile] | 310 ± 10 nM | MAO-A | >326.79 | 80.8 ± 1.69% | 71 ± 1.18% | > 100000 nM | 69 ± 1.05% | 40.7 ± 0.98% |  |  | 
5 | O=[N+]([O-])c1ccc(-c2csc(NN=Cc3cc4ccccc4o3)n2)cc1 [2e, 2-(2-(Benzofuran-2-ylmethylene)hydrazinyl)-4-(4-nitrophenyl)thiazole] | 260 ± 10 nM | MAO-A | >386.10 | 83.2 ± 1.65% | 69.3 ± 0.9% | > 100000 nM | 72.1 ± 1.4% | 48.3 ± 0.86% |  |  | 
6 | Fc1ccc(-c2csc(NN=Cc3cc4ccccc4o3)n2)cc1 [2f, 2-(2-(Benzofuran-2-ylmethylene)hydrazinyl)-4-(4-fluorophenyl)thiazole] | 340 ± 10 nM | MAO-A | >4.06 | 85.7 ± 1.48% | 73.6 ± 1.16% | 1370 ± 60 nM | 82.7 ± 1.66% | > 50% |  |  | 
7 | Clc1ccc(-c2csc(NN=Cc3cc4ccccc4o3)n2)cc1 [2g, 2-(2-(Benzofuran-2-ylmethylene)hydrazinyl)-4-(4-chlorophenyl)thiazole] | 90 ± 10 nM | MAO-A | >1075.27 | 79.5 ± 1.06% | 68.7 ± 0.94% | > 100000 nM | 68.4 ± 0.97% | 45.2 ± 0.86% |  |  | 
8 | Brc1ccc(-c2csc(NN=Cc3cc4ccccc4o3)n2)cc1 [2h, 2-(2-(Benzofuran-2-ylmethylene)hydrazinyl)-4-(4-bromophenyl)thiazole] | 420 ± 20 nM | MAO-A | >2.53 | 86.8 ± 1.6% | 78.5 ± 1.09% | 1060 ± 50 nM | 70.2 ± 1.36% | > 50% |  |  | 
9 | Cc1ccc(-c2csc(NN=Cc3cc4ccccc4o3)n2)c(C)c1 [2i, 2-(2-(Benzofuran-2-ylmethylene)hydrazinyl)-4-(2,4-dimethylphenyl)thiazole] | 430 ± 20 nM | MAO-A | >3.93 | 84.2 ± 1.35% | 71.3 ± 1.86% | 1690 ± 80 nM | 73.5 ± 1.49% | > 50% |  |  | 
10 | COc1ccc(-c2csc(NN=Cc3cc4ccccc4o3)n2)c(OC)c1 [2j, 2-(2-(Benzofuran-2-ylmethylene)hydrazinyl)-4-(2,4-dimethoxyphenyl)thiazole] | 140 ± 10 nM | MAO-A | >719.42 | 87.5 ± 1.8% | 68.4 ± 1.15% | > 100000 nM | 67.9 ± 1.3% | 41.5 ± 0.75% |  |  | 
11 | Fc1ccc(-c2csc(NN=Cc3cc4ccccc4o3)n2)c(F)c1 [2k, 2-(2-(Benzofuran-2-ylmethylene)hydrazinyl)-4-(2,4-difluorophenyl)thiazole] | 130 ± 10 nM | MAO-A | >787.40 | 89.9 ± 1.76% | 73.7 ± 0.83% | > 100000 nM | 74.5 ± 1.4% | 40.7 ± 0.95% |  |  | 
12 | Clc1ccc(-c2csc(NN=Cc3cc4ccccc4o3)n2)c(Cl)c1 [2l, 2-(2-(Benzofuran-2-ylmethylene)hydrazinyl)-4-(2,4-dichlorophenyl)thiazole] | 73 nM and 70 nM | MAO-A | >10.30 | 94 ± 1.65% | 91.4 ± 1.36% | 750 ± 30 nM | 86.6 ± 1.29% |  | high BBB permeability | > 100000 nM | nontoxic
13 | O=C(NCCN1CCOCC1)c1ccc(Cl)cc1 [Moclobemid, moclobemide, reference compound] |  |  |  | 94.1 ± 2.76% | 82.1 ± 2.69% |  |  |  |  |  | 
